Literature values as cited in patent publication US20110313040A1, “ORGANIC NUTRIENT SALTS, METHODS OF PREPARATION AND USES” (BELLUS HEALTH INC., priority 2008, published 2011).

Details: in vivo

In the case of `NCCCS(=O)(=O)[O-].[Na+]` [sodium salt of homotaurine], the “stomach and gastrointestinal tolerance” value is given as “caused stomach and gastrointestinal intolerance (e.g. nausea, vomiting)”.
